ChEMBL document CHEMBL3621127, “8-Hydroxyquinoline: a privileged structure with a broad-ranging pharmacological potential” (Medchemcomm, 2015)

Legend:
[1] = Selectivity index, ratio of CC50 for mouse J774A.1 cells to IC50 for amastigote form of Leishmania donovani MHOM//IN/80/Dd8 infected in mouse J774A.1 cells; format: functional
[2] = test system: Leishmania donovani; experiment: Antileishmanial activity against amastigote form of Leishmania donovani MHOM//IN/80/Dd8 infected in mouse J774A.1 cells after 72 hrs by luciferase reporter gene assay; format: functional, organism-based; conditions: MHOM//IN/80/Dd8, J774.A1, 72 h
[3] = biological target: Amyloid-beta precursor protein (Homo sapiens, UniProt P05067); experiment: Inhibition of self-induced amyloid beta (1 to 42) (unknown origin) aggregation after 48 hrs by ThT assay
[4] = Acute toxicity in po dosed KM mouse measured for 14 days; format: organism-based; conditions: in vivo
[5] = Inhibition of Mycobacterium tuberculosis Fructose 1,6-bisphosphate aldolase class 2 expressed in Escherichia coli BL21(DE3) assessed as cleavage of fructose 1,6-bisphosphate by fluorescence assay

Sequence of Amyloid-beta precursor protein (P05067 whole entry): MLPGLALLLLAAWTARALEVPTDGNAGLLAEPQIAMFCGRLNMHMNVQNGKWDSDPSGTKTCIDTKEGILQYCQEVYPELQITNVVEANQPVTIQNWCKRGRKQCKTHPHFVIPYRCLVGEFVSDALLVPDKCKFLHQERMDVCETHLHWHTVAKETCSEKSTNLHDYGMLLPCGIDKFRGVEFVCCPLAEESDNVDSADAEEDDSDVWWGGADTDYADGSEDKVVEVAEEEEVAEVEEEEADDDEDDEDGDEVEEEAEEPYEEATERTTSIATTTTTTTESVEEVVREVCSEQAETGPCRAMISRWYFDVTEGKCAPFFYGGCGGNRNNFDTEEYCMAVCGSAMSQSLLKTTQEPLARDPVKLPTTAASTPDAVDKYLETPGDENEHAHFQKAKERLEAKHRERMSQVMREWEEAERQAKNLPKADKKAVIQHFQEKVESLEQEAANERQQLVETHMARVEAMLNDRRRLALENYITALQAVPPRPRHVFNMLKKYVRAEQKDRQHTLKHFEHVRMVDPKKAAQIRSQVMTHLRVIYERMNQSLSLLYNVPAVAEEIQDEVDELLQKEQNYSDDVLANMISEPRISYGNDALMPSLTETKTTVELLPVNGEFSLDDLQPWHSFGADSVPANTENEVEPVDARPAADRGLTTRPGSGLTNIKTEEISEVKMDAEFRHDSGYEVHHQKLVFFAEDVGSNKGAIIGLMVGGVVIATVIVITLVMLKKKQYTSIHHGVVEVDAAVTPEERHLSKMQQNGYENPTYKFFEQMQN

Row | Structure (SMILES) | Ratio CC50/IC50 [1] | IC50 [2] [µM] | IC50 [3] [µM] | LD50 at 336 h [4] [mg/kg] | IC50 [5] [µM]
1 | CCCCCCCCCCCCCCCCOP(=O)([O-])OCC[N+](C)(C)C [MILTEFOSINE] | 4.1 | 12.4 | – | – | –
2 | COc1ccc(OC)c(/C=C/NC(=O)c2cc(O)c3cccc(OC)c3n2)c1 | 25.27 | 3.75 | – | – | –
3 | Oc1ccc(/C=C/c2ccc(O)c3ncccc23)cc1 | – | – | 8.5 | > 2000 | –
4 | O=C(O)c1ccc2cccc(O)c2n1 | – | – | – | – | 10
